# Laboratory results from patent US8389468B2, “Approach to the treatment of compartment syndrome” (Lantmannen AS-Faktor AB, priority 2006, dated 2013).
# Legend:
# [1] = system: flotillin-1 and aquaporin 1 immunoreactivities in the choroid plexus; test: Immunohistochemistry of flotillin-1 and aquaporin 1 in choroid plexus of HSV-1 infected rats; assay type: in vivo, rat; conditions: hardly demonstrable with vehicle
# Method: Therefore, rats were infected by instillation in their right nostril of 25 μL of a solution of the herpes simplex virus type 1 (HSV-1; strain 2762, batch 041028; 1.7×10^7 PFU/mL). Half of the animals received 10 min later 25 μL (1, 10 or 25 pg) of AF-16 in their right nostril, and had thereafter the same dose of AF-16 instilled every morning at 8 AM and every night at 6 PM until the experiment was terminated on day 14. The other half of the group of HSV-1 infected rats received 25 μL of the vehicle, PBS, at the same time schedule. The animals were several times daily closely watched for signs of behavioral dysfunction or general sickness. If so, the animals were sacrificed. The FIG. 3 is illustrating the survival rates for the animals, all being infected with HSV-1. […] In contrast, the HSV-1 infected rats, receiving just the vehicle (n=15), died to a large extent and only 10% were still surviving at the end of the test period, day 14 (FIG. 3). All of the vehicle treated, infected rats developed signs of neurological dysfunctions. […] It ought to be stressed that the extent and severity of the damage were depending on the duration of the exposure and to the level of elevated ICP as well as to the survival time. […]
# [2] = system: Staphylococcus areus (SA; strain LS1) infected joints; test: Arthritis by arthritogenic Staphylococcus areus (strain LS1), joint pressure; assay type: in vivo, rat
# Source text: Joints are enclosed by tender, noncompliant collagen capsules, further characterised by low elasticity but plasticity. At arthritis, the pressure in the synovial fluid in the joint cavity turns elevated, and inflammation adds to the symptoms. A CS is prevalent. In order to investigate if treatment with AF-16 could prevent or at least reduce the development of such a CS, adult rats were infected by systemic injection of a solution of an arthritogenic Staphylococcus areus (SA; strain LS1). One group of animals (n=3) were treated with AF-16 while a second group of rats (n=3) just received the vehicle, PBS. After a few days the knee joints and later on additional limb and foot joints turned tender, swollen and got elevated pressure in the joint cavities, as measured with the Samba Fibre Optic Pressure probe (Samba System 3200 & Samba Preclin 420 sensor; Samba Sensors AB, Gruvgatan 6, SE 42130 V. Frolunda, Sweden), as well as in the immediately surrounding tissue. The pressure in a normal synovial large joint is 0-5 mm Hg, but could increase more than five-fold in infected, inflamed joints. The interstitial fluid pressure in the subcutaneous tissue at a distance from the infected joint was measured for comparison and found to remain within normal limits, ±2 mm Hg. […] Infected animals, which only received treatment with the vehicle, PBS, developed CS of with time increasing severity.
# [3] = system: femoral artery; test: Injured arteries, local delivery by osmotic minipump; assay type: in vivo, rat
# Source text: During surgery and at a trauma arteries may be injured, causing the vascular wall to swell. These events will result in the development of elevated IFP in the vascular wall, resulting in inflammatory reactions and rebuilding (Hansson, Jennische & Skottner, 1987). […] Additional animals had for comparison their pumps filled with the vehicle. The injured arteries were investigated either 3, 5, 7 or 14 days later. Blood vessels recovered from the vehicle-treated animals were tender, had increased outer diameter and were swollen. […] The potency rate was higher for those treated with AF-16 as compared to the vehicle exposed ones. […] Further, the number of macrophages, foam cells and lymphocytes was as well reduced by the AF-16 treatment.
# [4] = system: Musculus extensor digitorum longus (EDL); test: Ischemic injury of skeletal muscle (EDL), compartment pressure; assay type: in vivo, rat
# Method: On the hind leg, the large vessels entering the Musculus extensor digitorum longus (EDL) were occluded for 1-3 hours by applying external pressure load (Cf. Jennische & Hansson, 1987; Jennische, Skottner & Hansson, 1987). Thereafter, the blood flow was allowed to resume, and the muscle enclosures and the skin incision repaired and sutured. […] A CS developed as the tissue and the interstitial tissue accumulated fluid in such a closed compartment and additionally the muscle tissue turned swollen and oedematous. The pressure within such an enclosed compartment increased, resulting in the development of a CS. Surgical intervention was required to prevent that parts of the skeletal muscle tissue became necrotic, if there was no additional treatment. […] Thus, treatment with AF-16 prevented the development of a CS, eventually reducing the tissue damage and loss.
# [5] = system: liver, spleen, kidney and thyroid; test: Mechanical injury of liver, spleen, kidney and thyroid; assay type: in vivo, rat; conditions: compression and abrasion, vs vehicle
# Source text: The liver, spleen, kidney and thyroid were similarly mechanically injured by compression and exposed to abrasion. […] Further the prevalence of ascites and related types of excessive extracellular fluid at elevated pressure was reduced. Thus AF-16 reduced the extent and severity of the CS in parenchymatous organs and tissues.
# [6] = system: HSV-1; test: Immunohistochemical demonstration of HSV antigens in brain, mice; assay type: in vivo; conditions: instillation twice daily in right nostril, six days
# Method: An alternative explanation to the improved survival of HSV-1 infected animals could be that the treatment with AF-16 prevented the virus from multiplying and/or spreading in the brain. […] Adult rats were infected by having a solution of the herpes simplex virus type 1 (HSV-1; strain 2762, batch 041028; 1.7×10^7 PFU/mL) instilled in their right nostril. Half of the animals received 10 min later 25 pi_ (1 or 10 pg) of AF-16 in their right nostril, and had thereafter the same dose of AF-16 instilled every morning at 8 AM and every night at 6 PM until the experiment was terminated on day 6. The other groups of the HSV-1 infected rats received at the same time intervals 25 pL of the vehicle, PBS. The animals were closely watched for signs of general sickness and of behavioral and motor dysfunction. The animals were sacrificed by an overdose of anesthetics on day 6, the skull opened and the brain removed. The brains, including the olfactory bulbs, were fixed by immersion in buffered formalin for at least a day. The brains were the dissected and divided in several specimens, which were processed for light microscopic investigation after paraffin embedding and sectioning. The sections were processed for routine staining and for immunohistochemical visualization of HSV-1 proteins (FIG. 4). […] Note the distinct staining of the nerve cells (black in FIG. 4a-c).
sequence,measurement,setting,value
VCHSKTRSNPENNVGL [AF-16],aquaporin 1 immunoreactivity in the choroid plexus,[1],readily demonstrable
same,flotillin-1 immunoreactivity in the choroid plexus,[1],readily demonstrable
same,"joint tenderness, swelling, pain",[2]; SA infected large joint,"did not have that tender, swollen and painful joints"
same,pressure in the infected joint,"[2]; SA infected large joint, n=3, normal joint 0-5 mm Hg",close to normal pressure in the joint
same,"number of S. areus in synovial fluid, treated vs not",[2]; larger joints,about the same
same,swelling and inflammation of injured vessels,"[3]; 3, 5, 7 or 14 days, vs vehicle",less swollen and inflamed
same,"damage, inflammatory reactions and reactive alterations (neointima) of femoral artery","[3]; after 14 days, vs vehicle",less damage and less prominent inflammatory reactions and less extensive reactive alterations
same,"number of macrophages, foam cells and lymphocytes","[3]; rat, in vivo",reduced
same,potency rate,[3]; vs vehicle,higher
same,pressure within the muscle compartment,"[4]; EDL vessels occluded 1-3 hours, Samba pressure sensors",turn about normal
same,extent and volume of muscle tissue damage (light microscopy),[4]; vs vehicle,reduced the extent and volume of the tissue damage
same,oedema and swelling of injured organs,[5],reduce the oedema and swelling
same,distribution or extent of virus antigens in the brain vs vehicle,[6],no obvious difference in the distribution or extent of virus antigens
